# Assay results published in US10352936B2, “Use of tumor Fas expression to determine response to anti-cancer therapy” (ApopLogic Pharmaceuticals, Inc., priority 2011, dated 2019).
# Test system: naturally occurring appendicular osteosarcoma
# Assay: Survival of dogs treated with neoadjuvant FasL plus standard of care versus carboplatin standard of care
# Type: in vivo, dog
# Conditions: whole treatment group
# Description: Without being bound to theory, the principle of this treatment was based on a 10-day delay of therapy. The rationale for a 10-day delay approach was based on our preclinical data showing that there was statistically significant immunologic protection in animals immunized 10 days before challenge, as well as on the practicality of any delay of therapy approach. The experimental therapy was performed on Day 1, and dogs were followed to assess local and/or systemic toxicity for 10 days. At the end of the investigational period, dogs were treated using standard-of-care for OS.
# The treatment sequence was as follows: On Day 0—history, physical, CBC, biochemical profile, urinalysis, chest radiographs, +/− bone scan. On Day 1, lesion biopsy and intratumoral injection. On Days 3, 7, and 10, toxicity monitoring with physical exam, CBC, biochemical profile, urinalysis, lameness evaluation and quality of life assessment. Day 10, amputation of affected limb.
# Patient selection, treatment, and biological sample preparation were conducted as described in Example 1. Fifty seven dogs were enrolled in the study. Two dogs were diagnosed with intramedullary tumors that were not OS, two dogs were withdrawn from the study, two dogs had pre-existing metastasis, two were lost to follow up, and four died of other causes. The rest of the patients were followed until their death, which was then determined to be disease-related (“died of disease”) or unrelated to disease recurrence (“died of other causes”).
# Table 1 depicts disease free interval (DFI), overall survival (OS), and percentage of dogs alive at 200 days following treatment and amputation that were treated with standard of care (carboplatin (carbo) control) and treated with FasL. Additionally, the disease free interval and overall survival of those dogs which had inflammation scores of 1 (low inflammation) as determined by histopathologic evaluation (see Example 1) or inflammation scores of 2-3 (moderate to high inflammation) is depicted. […]
smiles,measurement,setting,value
"[NH2][Pt]1([NH2])[O]C(=O)C2(CCC2)C(=O)[O]1 [Carbo control, carboplatin]",Disease Free Interval,,213
same,Overall Survival,,231 days
same,% Alive at 200 Days,200 days following treatment and amputation,56%
